The values below are quoted from earlier work in US20180027805A1, “ACID HERBICIDE-CONTAINING COMPOSITIONS, PRECURSORS, DERIVATIVES, AND METHODS” (priority 2015, published 2018).

Turning to `CC(C)C1(C)N=C(c2nc3ccccc3cc2C(=O)O)NC1=O` (centres unmarked) [Imazaquin], the pKa is on record as 3.8.
For the compound `O=C(O)c1cc(Oc2ccc(C(F)(F)F)cc2Cl)ccc1[N+](=O)[O-]` [Acifluorfen], the pKa was 3.86.
Consider `O=C(O)COc1nc(Cl)c(Cl)cc1Cl` [Triclopyr, 3,5,6-trichloro-2-pyridyloxyacetic acid], for which the pKa is recorded as 2.68.
For `C[C@@H](Oc1ccc(Oc2ccc(C(F)(F)F)cn2)cc1)C(=O)O` [Fluazifop-p], the pKa is given as 2.98.
Regarding `CC(Oc1ccc(Oc2ccc(Cl)cc2Cl)cc1)C(=O)O` (centres unmarked) [Diclofop], the pKa is recorded as 3.57.
Consider Imazamethbenz, for which the pKa is reported as 2.9.
Turning to `COc1c(Cl)ccc(Cl)c1C(=O)O` [Dicamba, 3,6-dichloro-O-anisic acid], the pKa is on record as 1.87.
For `Nc1c(Cl)c(Cl)nc(C(=O)O)c1Cl` [Picloram], the pKa is listed as 2.3.
Regarding `N#Cc1cc(Br)c(O)c(Br)c1` [Bromoxynil], the pKa is listed as 4.06.
As for `O=C(O)CCCOc1ccc(Cl)cc1Cl` [2,4-DB], the pKa is 4.8.
Take `CC(Oc1ccc(Oc2ncc(C(F)(F)F)cc2Cl)cc1)C(=O)O` (centres unmarked) [Haloxyfop]: the pKa is recorded as 4.33.

As usually defined, the pKa is the negative logarithm of the acid dissociation constant.
